Primed or numbered codes have the meaning given here. Where no end group is shown, it is not given here. [ ]: non-standard residue; d: D form. The star is where a group is joined. ol = C-terminal alcohol (reduced C-terminus); Desaminotyrosyl = O=C(CCc1ccc(O)cc1)*; Hydrocinnamoyl = O=C(CCc1ccccc1)*; NMeF = CN[C@@H](Cc1ccccc1)C(=O)O; ol″ = C-terminal alcohol; Propionyl = CCC(=O)*; GABA = NCCCC(=O)O; βAla = NCCC(=O)O; Sar = CNCC(=O)O
Experiments:
[1] = system: osteoblastic MC3T3 E1 cells; test: Proliferation assay, osteoblastic MC3T3 E1 cells; type: cell-based; conditions: for Relative in vitro potency (95% confidence limit) MC3T3 E1 cells: analog concentration 10^−13M, mean cell number relative to positive control OGP(1-14) = 1.00
From the text: (§1) Some of the analogs were subjected to a dose response analysis.

[2] = system: fibroblastic NIH 3T3 cells; test: Proliferation assay, fibroblastic NIH 3T3 cells; type: cell-based; conditions: for Relative in vitro potency (95% confidence limit) NIH 3T3 cells: analog concentration 10^−11M, mean cell number relative to positive control OGP(1-14) = 1.00
From the text: as §1

[Phe^10]OGP(10-14) (FGFGG)
Relative in vitro potency (95% confidence limit) MC3T3 E1 cells [1]: 0.41
Relative in vitro potency (95% confidence limit) NIH 3T3 cells [2]: 0.32

[D-Ala^13]OGP(10-14)
Relative in vitro potency (95% confidence limit) MC3T3 E1 cells [1]: 0.14
Relative in vitro potency (95% confidence limit) NIH 3T3 cells [2]: 0.26

desamino[Tyr^10,D-Ala^12]OGP(10-14)
Relative in vitro potency (95% confidence limit) MC3T3 E1 cells [1]: 0.30
Relative in vitro potency (95% confidence limit) NIH 3T3 cells [2]: 0.02

desamino[Tyr^10,D-Ala^11]OGP(10-14)
Relative in vitro potency (95% confidence limit) MC3T3 E1 cells [1]: 0.21
Relative in vitro potency (95% confidence limit) NIH 3T3 cells [2]: 0.19

c(β-Ala-Tyr-Gly-Phe-Gly-Gly) (cyclo([βAla]YGFGG); SMILES O=C1CNC(=O)CNC(=O)[C@H](Cc2ccccc2)NC(=O)CNC(=O)[C@H](Cc2ccc(O)cc2)NC(=O)CCN1)
Relative in vitro potency (95% confidence limit) MC3T3 E1 cells [1]: 0.36
Relative in vitro potency (95% confidence limit) NIH 3T3 cells [2]: 0.37

Nα-Ac—OGP(11-14) (Ac-GFGG)
Relative in vitro potency (95% confidence limit) MC3T3 E1 cells [1]: 0.21
Relative in vitro potency (95% confidence limit) NIH 3T3 cells [2]: 0.22

[Ala^10]OGP(10-14) (AGFGG)
Relative in vitro potency (95% confidence limit) MC3T3 E1 cells [1]: 0.29
Relative in vitro potency (95% confidence limit) NIH 3T3 cells [2]: 0.17

desamino[Tyr^10,Ala^12]OGP(10-14) [desamino[Tyr^10,Ala^12]OGP(10-14) (SEQ ID NO: 21)] ([Desaminotyrosyl]GAGG)
Relative in vitro potency (95% confidence limit) MC3T3 E1 cells [1]: 0.21
Relative in vitro potency (95% confidence limit) NIH 3T3 cells [2]: 0.16

c(δ-Ala-Tyr-Gly-Phe-Gly-Gly)
Relative in vitro potency (95% confidence limit) MC3T3 E1 cells [1]: 0.14
Relative in vitro potency (95% confidence limit) NIH 3T3 cells [2]: 0.18

desamino[Tyr^10]OGP(10-14)—NH2 ([Desaminotyrosyl]GFGG-NH2; SMILES NC(=O)CNC(=O)CNC(=O)[C@H](Cc1ccccc1)NC(=O)CNC(=O)CCc1ccc(O)cc1)
Relative in vitro potency (95% confidence limit) MC3T3 E1 cells [1]: 0.20
Relative in vitro potency (95% confidence limit) NIH 3T3 cells [2]: 0.16

desamino[Tyr^10,Ala^13]OGP(10-14) ([Desaminotyrosyl]GFAG)
Relative in vitro potency (95% confidence limit) MC3T3 E1 cells [1]: 0.27
Relative in vitro potency (95% confidence limit) NIH 3T3 cells [2]: 0.15

desamino[Tyr^10,D-Ala^13]OGP(10-14)
Relative in vitro potency (95% confidence limit) MC3T3 E1 cells [1]: 0.28
Relative in vitro potency (95% confidence limit) NIH 3T3 cells [2]: 0.23

[β-Ala^11]OGP(10-14) (Y[βAla]FGG)
Relative in vitro potency (95% confidence limit) MC3T3 E1 cells [1]: 0.29
Relative in vitro potency (95% confidence limit) NIH 3T3 cells [2]: 0.17

c(γ-Abu-Tyr-Gly-Phe-Gly-Gly) (cyclo([GABA]YGFGG); SMILES O=C1CNC(=O)CNC(=O)[C@H](Cc2ccccc2)NC(=O)CNC(=O)[C@H](Cc2ccc(O)cc2)NC(=O)CCCN1)
Relative in vitro potency (95% confidence limit) MC3T3 E1 cells [1]: 0.20
Relative in vitro potency (95% confidence limit) NIH 3T3 cells [2]: 0.22

desamino Tyr-Gly-Phe-NH-CH2-CH2-CH2-CH2-C(O)-OH
Relative in vitro potency (95% confidence limit) MC3T3 E1 cells [1]: 0.78
Relative in vitro potency (95% confidence limit) NIH 3T3 cells [2]: 0.188

desamino[Tyr^10]OGP(10-14)—NHMe ([Desaminotyrosyl]GFGG-NHMe; SMILES CNC(=O)CNC(=O)CNC(=O)[C@H](Cc1ccccc1)NC(=O)CNC(=O)CCc1ccc(O)cc1)
Relative in vitro potency (95% confidence limit) MC3T3 E1 cells [1]: 0.18
Relative in vitro potency (95% confidence limit) NIH 3T3 cells [2]: 0.16

desamino[Tyr^10]OGP(10-13)—NH(CH2)2NH2 ([Desaminotyrosyl]GFG-{NH(CH2)2NH2})
Relative in vitro potency (95% confidence limit) MC3T3 E1 cells [1]: 0.18
Relative in vitro potency (95% confidence limit) NIH 3T3 cells [2]: 0.17

desamino[Tyr^10]OGP(10-13)—NHEt ([Desaminotyrosyl]GFG-NHEt; SMILES CCNC(=O)CNC(=O)[C@H](Cc1ccccc1)NC(=O)CNC(=O)CCc1ccc(O)cc1)
Relative in vitro potency (95% confidence limit) MC3T3 E1 cells [1]: 0.19
Relative in vitro potency (95% confidence limit) NIH 3T3 cells [2]: 0.20

[D-Ala^10]OGP(10-14)
Relative in vitro potency (95% confidence limit) MC3T3 E1 cells [1]: 0.12
Relative in vitro potency (95% confidence limit) NIH 3T3 cells [2]: 0.16

c(Gly-Tyr-Gly-Phe-Gly-Gly) (GYGFGG; cyclic)
Relative in vitro potency (95% confidence limit) MC3T3 E1 cells [1]: 0.26
Relative in vitro potency (95% confidence limit) NIH 3T3 cells [2]: 0.20

desamino[Tyr^10]OGP(10-14)—ol ([Desaminotyrosyl]GFGG-ol)
Relative in vitro potency (95% confidence limit) MC3T3 E1 cells [1]: 0.24
Relative in vitro potency (95% confidence limit) NIH 3T3 cells [2]: 0.28

desamino[Tyr^10,D-Ala^14]OGP(10-14)
Relative in vitro potency (95% confidence limit) MC3T3 E1 cells [1]: 0.41
Relative in vitro potency (95% confidence limit) NIH 3T3 cells [2]: 0.32

[Ala^14]OGP(11-14) (GFGA)
Relative in vitro potency (95% confidence limit) MC3T3 E1 cells [1]: 0.17
Relative in vitro potency (95% confidence limit) NIH 3T3 cells [2]: 0.10

desamino[Tyr^10,Ala^14]OGP(10-14) ([Desaminotyrosyl]GFGA)
Relative in vitro potency (95% confidence limit) MC3T3 E1 cells [1]: 0.19
Relative in vitro potency (95% confidence limit) NIH 3T3 cells [2]: 0.16

(desamino[Phe^10]2OGP(10-14)
Relative in vitro potency (95% confidence limit) MC3T3 E1 cells [1]: 0.18
Relative in vitro potency (95% confidence limit) NIH 3T3 cells [2]: 0.24

desamino[Tyr^10,Sar^13]OGP(10-14) ([Desaminotyrosyl]GF[Sar]G)
Relative in vitro potency (95% confidence limit) MC3T3 E1 cells [1]: 0.15
Relative in vitro potency (95% confidence limit) NIH 3T3 cells [2]: 0.11

desamino[Tyr^10]OGP(10-14)—N(Me)2 ([Desaminotyrosyl]GFGG-{N(Me)2})
Relative in vitro potency (95% confidence limit) MC3T3 E1 cells [1]: 0.12
Relative in vitro potency (95% confidence limit) NIH 3T3 cells [2]: 0.16

desamino Tyr-NH-CH2-CH2-Phe-Gly-Gly ([Desaminotyrosyl]GFGG; also: Gly2-Phe3 bond reduced, ψ(CH2NH))
Relative in vitro potency (95% confidence limit) MC3T3 E1 cells [1]: 0.61
Relative in vitro potency (95% confidence limit) NIH 3T3 cells [2]: 0.67

c(Gly-Tyr-Gly-Phe-Gly-Asp)-OH (GYGFGD-OH; lactam (positions not given here); also: cyclic, closure site not given here)
Relative in vitro potency (95% confidence limit) MC3T3 E1 cells [1]: 0.15
Relative in vitro potency (95% confidence limit) NIH 3T3 cells [2]: 0.16

desamino Tyr-Gly-Phe-NH-CH2-CH2-Gly (YGFGG; not fully specified; desamino Tyr10; reduced CH2NH bond Gly13-Gly14)
Relative in vitro potency (95% confidence limit) MC3T3 E1 cells [1]: 0.78
Relative in vitro potency (95% confidence limit) NIH 3T3 cells [2]: 0.80

c(Tyr-Cly-Phe-Gly) (YGFG; cyclic)
Relative in vitro potency (95% confidence limit) MC3T3 E1 cells [1]: 0.35
Relative in vitro potency (95% confidence limit) NIH 3T3 cells [2]: 0.43

desamino[Ala^10]OGP(10-14) ([Propionyl]GFGG)
Relative in vitro potency (95% confidence limit) MC3T3 E1 cells [1]: 0.28
Relative in vitro potency (95% confidence limit) NIH 3T3 cells [2]: 0.09

[Ala^13]OGP(11-14) (GFAG)
Relative in vitro potency (95% confidence limit) MC3T3 E1 cells [1]: 0.22
Relative in vitro potency (95% confidence limit) NIH 3T3 cells [2]: 0.10

desamino[Tyr^10,Sar^11]OGP(10-14) [desamino[Tyr^10,Sar^11]OGP(10-14) (SEQ ID NO: 31)] ([Desaminotyrosyl][Sar]FGG)
Relative in vitro potency (95% confidence limit) MC3T3 E1 cells [1]: 0.31
Relative in vitro potency (95% confidence limit) NIH 3T3 cells [2]: 0.39

desamino[Phe^10]OGP(10-14) ([Hydrocinnamoyl]GFGG)
Relative in vitro potency (95% confidence limit) MC3T3 E1 cells [1]: 0.35
Relative in vitro potency (95% confidence limit) NIH 3T3 cells [2]: 0.48

desamino Tyr-Gly-NH-CH(CH2C6H5)-CH2-Gly-Gly ([Desaminotyrosyl]GFGG; also: reduced amide bond Phe-Gly (NH-CH(CH2C6H5)-CH2-NH))
Relative in vitro potency (95% confidence limit) MC3T3 E1 cells [1]: 0.70
Relative in vitro potency (95% confidence limit) NIH 3T3 cells [2]: 0.88

desamino Tyr-CH2-Gly-Phe-Gly-Gly ([Desaminotyrosyl]GFGG; also: reduced amide bond Tyr-CH2-Gly) [desamino[Tyr^10ψ(CH2NH)Gly^11]OGP(10-14)]
Relative in vitro potency (95% confidence limit) MC3T3 E1 cells [1]: 0.81
Relative in vitro potency (95% confidence limit) NIH 3T3 cells [2]: 0.79

c(δ-Ala-Tyr-Gly-Phe-Gly-Asp)-OH
Relative in vitro potency (95% confidence limit) MC3T3 E1 cells [1]: 0.20
Relative in vitro potency (95% confidence limit) NIH 3T3 cells [2]: 0.11

[Ala^11]OGP(10-14) (YAFGG)
Relative in vitro potency (95% confidence limit) MC3T3 E1 cells [1]: 0.18
Relative in vitro potency (95% confidence limit) NIH 3T3 cells [2]: 0.31

des[Gly^11]OGP(10-14)
Relative in vitro potency (95% confidence limit) MC3T3 E1 cells [1]: 0.21
Relative in vitro potency (95% confidence limit) NIH 3T3 cells [2]: 0.17

desamino[Tyr^10,Sar^11]OGP(10-14) [desamino[Tyr^10,Sar^11]OGP(10-14) (SEQ ID NO: 34)]
Relative in vitro potency (95% confidence limit) MC3T3 E1 cells [1]: 0.16
Relative in vitro potency (95% confidence limit) NIH 3T3 cells [2]: 0.14)

desamino[Tyr^10,Ala^12]OGP(10-14) [desamino[Tyr^10,Ala^12]OGP(10-14) (SEQ ID NO: 20)]
Relative in vitro potency (95% confidence limit) MC3T3 E1 cells [1]: 0.41
Relative in vitro potency (95% confidence limit) NIH 3T3 cells [2]: 0.43

OGP(11-14)-ol (GFGG-{ol″})
Relative in vitro potency (95% confidence limit) MC3T3 E1 cells [1]: 0.24
Relative in vitro potency (95% confidence limit) NIH 3T3 cells [2]: 0.38

desamino[Tyr^10]OGP(10-14)—OMe ([Desaminotyrosyl]GFGG-OMe; SMILES COC(=O)CNC(=O)CNC(=O)[C@H](Cc1ccccc1)NC(=O)CNC(=O)CCc1ccc(O)cc1)
activity compared to OGP(1-14) ([1]; MC3T3 E1 cells): higher than 50%
Relative in vitro potency (95% confidence limit) MC3T3 E1 cells [1]: 0.51
activity compared to OGP(1-14) ([2]; NIH3T3 cells): less than 50%
Relative in vitro potency (95% confidence limit) NIH 3T3 cells [2]: 0.36

desamino Tyr-Gly-N(CH3)-CH(CH2C6H5)-C(O)-Gly-Gly ([Desaminotyrosyl]G[NMeF]GG) [desamino[Tyr^10,N(Me)-Phe^12]OGP(10-14)]
Relative in vitro potency (95% confidence limit) MC3T3 E1 cells [1]: 0.52
Relative in vitro potency (95% confidence limit) NIH 3T3 cells [2]: 0.67

c(Tyr-Gly-Phe-Gly-Asp)-OH (YGFGD-OH; lactam (positions not given here); also: cyclic, closure site not given here)
Relative in vitro potency (95% confidence limit) MC3T3 E1 cells [1]: 0.14
Relative in vitro potency (95% confidence limit) NIH 3T3 cells [2]: 0.11

— US6479460B1, “Synthetic peptides and pseudopeptides having osteogenic activity and pharmaceutical compositions containing the same” (Yissum Research Development Company of the Hebrew …, priority 1996, dated 2002)
